Assays:
SKOV3 cells = conditions: 10 μM polymer, 72 h; FITC-annexin V, flow cytometry
[1] = test system: caspase 3/7 activity in SKOV3 cells; conditions: 0-10 μM polymer, 72 h
[2] = test system: SKOV3 human ovarian cancer cells; conditions: all polymer concentrations (0 to 10 μM), 96 h, MTS
3T3 fibroblasts = conditions: MTS; after 120 h of treatment
[3] = test system: mitochondria of granta-519 tumor cells; assay: Cytochrome C release from mitochondria of tumor cells; format: cell-based; conditions: 10 μM peptide; in comparison to a positive 1% Triton X-100 control; Figure S4

Row | Substance | cells staining positive for annexin V (SKOV3 cells) | change in caspase 3/7 activity relative to untreated cultures [1] | cell viability [2] | BIM-mediated cell death in 3T3 fibroblasts (3T3 fibroblasts) | cytochrome C release [3]
1 | poly[(DEAEMA)-co-(BMA)]-b-[(PEGMA300)-c-(MaCathScrBIM)] [PolCathScrBIM] | 15% | no change | greater than 90% | – | –
2 | poly[(DEAEMA)-co-(BMA)]-b-[(PEGMA300)-c-(MaCath-BIM)] [PolCathBIM] | 87% | – | – | no BIM-mediated cell death was observed | –
3 | FLAhxMRPEI-WIAQELRRIGvDEFNAY [FLAhxBIM] | – | – | – | – | > 90%

From article PMC5823688 (Molecular pharmaceutics, 2017)
